Here are results for 7 compounds from ChEMBL document CHEMBL1955772, “Cytotoxic terpenoids from Juglans sinensis leaves and twigs” (Bioorg Med Chem Lett, 2012).

One assay deals with HEp-2. Put plainly: Cytotoxicity against human Hep2 cells after 24 hrs by MTS assay. Format: functional, cell-based. Conditions: HEp-2, 24 h.
Another assay deals with MCF7. Put plainly: Cytotoxicity against human MCF7 cells after 24 hrs by MTS assay. To be noted: MCF7, 24 h. In kind it is functional, cell-based.
The nature of assay [1]: Cytotoxicity against human U87MG cells after 24 hrs by MTS assay. In kind it is functional, cell-based, U-87MG ATCC. To be noted: U-87 MG.
A further assay deals with B16-F10. Put plainly: Cytotoxicity against mouse B16F10 cells after 24 hrs by MTS assay. Conditions: B16-F10, 24 h. Format: functional, cell-based.

Each structure is given as a SMILES string.

Take `C[C@H]1[C@H](C)CC[C@]2(C(=O)O[C@@H]3O[C@H](CO)[C@@H](O)[C@H](O)[C@H]3O)CC[C@]3(C)C(=CC[C@@H]4[C@@]5(C)C[C@@H](O)[C@@H](O)[C@@](C)(CO)[C@@H]5CC[C@]43C)[C@H]12`: the IC50 (in the assay on HEp-2; in the assay on MCF7; in assay [1]; in the assay on B16-F10) was > 10 µM in each case.

Turning to `CC(C)(O[C@@H]1O[C@H](CO)[C@@H](O)[C@H](O)[C@H]1O)[C@@H]1CC[C@@]2(C)CCC=C(CO)[C@@H]2C1`, the concentration for half-maximal inhibition (IC50) (in the assay with HEp-2; with MCF7; in assay [1]; in the assay on B16-F10) was > 10 µM throughout.

Regarding `CC(C)(O)[C@@H]1C[C@H]2[C@@](C)(C[C@@H]3C[C@@]32C)C[C@@H]1O`, the IC50 in the assay on HEp-2 was 4.22 µM; with MCF7, 1.81 µM; in assay [1], 1.13 µM; with B16-F10, > 10 µM.

With `CC(C)(O)[C@@H]1C[C@H]2[C@](C)(CC1=O)C[C@@H]1C[C@@]12C`, the concentration for half-maximal inhibition (IC50) turned out to be 5.25 µM in the assay on HEp-2, 4.11 µM in the assay with MCF7, 1.16 µM in assay [1] and 0.3 µM with B16-F10.

For `CO[C@@H]1O[C@@]2(CO)CC[C@@]13CC[C@]1(C)[C@H](C[C@@H](O)[C@@H]4[C@@]5(C)CC[C@H](O)[C@](C)(CO)[C@@H]5CC[C@]41C)[C@@H]3[C@]2(C)O` (relative stereo), the IC50 in the assay on HEp-2 worked out at 5.52 µM; with MCF7, 1.25 µM; in assay [1] it was 3.29 µM; with B16-F10, 1.53 µM.

With `CC1(C)C=C2[C@H]3CC[C@@H]4[C@@]5(C)[C@@H](O)C[C@H](O)C(C)(C)[C@@H]5CC[C@@]4(C)[C@]3(C)CC[C@@]2(C)CC1` (relative stereo), the half-inhibitory concentration (IC50) in the assay on HEp-2 was determined as 5.4 µM; in the assay with MCF7, 3.86 µM; in assay [1] it was 1.31 µM; in the assay with B16-F10, 0.3 µM.

On to `CC(C)(O)[C@@H]1C[C@H]2[C@@](C)(C[C@@H]3C[C@@]32C)C[C@H]1O` (relative stereo), for which the IC50 (with HEp-2; in the assay on MCF7; in assay [1]; in the assay with B16-F10) was > 10 µM throughout.
